Assay results published in patent US5593991A, “Imidazole compounds, use and process of making” (priority 1995, dated 1997).

Test system: human PGHS-2 protein expression
Assay: Prostoglandin endoperoxide synthase-2 (PGHS-2) protein expression in LPS stimulated human monocytes
Format: cell-based
Details: for inhibition of LPS induced PGHS-2 protein expression (inactive): up to 10 uM; for inhibited LPS induced PGHS-2 protein expression (active): rank order potency similar to that for inhibiting cytokine production
Procedure: The following assay describes a method for determining the inhibitory effects of compounds of Formula (I) on human PGHS-2 protein expression in LPS stimulated human monocytes
Human peripheral blood monocytes were isolated from buffy coats by centrifugation through Ficoll and Percoll gradients. Cells were seeded at 2×10^6 /well in 24 well plates and allowed to adhere for 1 hour in RPMI supplemented with 1% human AB serum, 20 mM L-glutamine, Penicillin-Streptomycin and 10 mM HEPES. Compounds were added at various concentrations and incubated at 37° C. for 10 minutes. LPS was added at 50 ng/well (to induce enzyme expression) and incubated overnight at 37° C. The supernatant was removed and cells washed once in cold PBS. The cells were lysed in 100 μl of cold lysis buffer(50 mM Tris/HCl pH 7.5, 150 mM NaCl, 1% NP40, 0.5% sodium deoxycholate, 0.1% SDS, […] DNAse, 0.1% TRITON X-100, 1 mM PMSF, 1 mM leupeptin, 1 mM pepstatin). The lysate was centrifuged (10,000×g for 10 min. at 4° C.) to remove debris and the soluble fraction was subjected to SDS PAGE. analysis (12% gel). Protein separated on the gel were transferred onto nitrocellulose membrane by electrophoretic means for 2 hours at 60 volts. The membrane was pretreated for one hour in PBS/0.1% Tween 20 with 5% non-fat dry milk. After washing 3 times in PBS/Tween buffer, the membrane was incubated with a 1:2000 dilution of a monospecific antiserum to PGHS-2 or a 1:1000 dilution of an antiserum to PGHs-1 in PBS/Tween with 1% BSA for one hour with continuous shaking. The membrane was washed 3X in PBS/Tween and then incubated with a 1:3000 dilution of horseradish peroxidase conjugated donkey antiserum to rabbit Ig (Amersham) in PBS/Tween with 1% BSA for one hour with continuous shaking. The membrane was then washed 3X in PBS/Tween and the ECL immunodetection system (Amersham) was used to detect the level of expression of prostaglandin endoperoxide synthases-2.

In the case of C[S+]([O-])c1ccc(-c2nc3n(c2-c2ccncc2)CCC3)cc1 (stereo not shown) [2-(4-Methylsulfinylphenyl)-3-(4-pyridyl)-6,7-dihydro-(5H)-pyrrolo[1,2-a]imidazole], the “inhibition of LPS induced PGHS-2 protein expression (inactive)” value (“inhibition” for short) is reported as “inactive”.
With Fc1ccc(-c2nc3n(c2-c2ccncc2)CCS3)cc1 [6-(4-Fluorophenyl)-2,3-dihydro-5-(4-pyridinyl)imidazo[2,1-b]thiazole] the “inhibited LPS induced PGHS-2 protein expression (active)” value was “active”.
With C[C@@H]1C[C@H]2[C@@H]3CCC4=CC(=O)C=C[C@]4(C)[C@@]3(F)[C@@H](O)C[C@]2(C)[C@@]1(O)C(=O)CO [Dexamethasone] the “inhibited LPS induced PGHS-2 protein expression (active)” value was “active”.
With Fc1ccc(-c2ncn(CCCN3CCOCC3)c2-c2ccncc2)cc1 [Example 1, 1-[3-(4-Morpholinyl)propyl]-4-(4-fluorophenyl)-5-(4-pyridyl)imidazole] the “inhibited LPS induced PGHS-2 protein expression (active)” value was “active”.
In the case of CC(Cc1ccc(O)c(O)c1)C(C)Cc1ccc(O)c(O)c1 (stereo not shown) [NDGA], the “inhibition” value is reported as “inactive”.
In the case of O=C1CCN(c2ccccc2)N1 [phenidone], the “inhibition” value is reported as “inactive”.
For COc1ccc(C2CNC(=O)C2)cc1OC1CCCC1 (stereo not shown) [rolipram], the “inhibition” value was “inactive”.
